Measured values as given in ChEMBL document CHEMBL3885881, “DrugMatrix”.
Values joined by “and” are separate entries in the source; they are usually repeats but may differ in a detail not shown here. Equal values may be shown once.

Species: Rattus norvegicus
Assay: DrugMatrix - Regimen: Daily Repeat
Type: toxicity, organism-based, Sprague-Dawley
Design: regimen Daily Repeat, gender Male, age 6-8 weeks
Settings: in vivo, po, route oral GAVAGE, vehicle .5 % CMC; for ABSOLUTE BASOPHIL / ABSOLUTE EOSINOPHIL / ABSOLUTE LYMPHOCYTE / ABSOLUTE MONOCYTE / BASOPHIL / EOSINOPHIL / ERYTHROCYTE COUNT / HEMATOCRIT / HEMOGLOBIN / LEUKOCYTE COUNT / LYMPHOCYTE / MEAN CORPUSCULAR HEMOGLOBIN / MEAN CORPUSCULAR HEMOGLOBIN CONCENTRATION / MEAN CORPUSCULAR VOLUME / MONOCYTE / NEUTROPHIL / PLATELET COUNT / ABSOLUTE SEGMENTED NEUTROPHIL / NUCLEATED RED BLOOD CELLS: tissue Blood; for ALANINE AMINOTRANSFERASE / ALBUMIN / ALKALINE PHOSPHATASE / ASPARTATE AMINOTRANSFERASE / BLOOD UREA NITROGEN / CARBON DIOXIDE / CHLORIDE / CHOLESTEROL / CREATINE PHOSPHOKINASE / CREATININE / GLUCOSE / LACTATE DEHYDROGENASE / LIPASE / PHOSPHORUS / POTASSIUM / SODIUM / TOTAL BILIRUBIN / TOTAL PROTEIN / URIC ACID: tissue Plasma
[1] = 10 mg/kg, […], dose level Low, time 14 day
[2] = 100 mg/kg, 72 h, dose level High, time 3 day
[3] = 100 mg/kg, 120 h, dose level High, time 5 day
[4] = 100 mg/kg, […], dose level High, time 14 day

CN(C)CCN(Cc1cccs1)c1ccccn1
ABSOLUTE BASOPHIL [1]: 83.3 cells/µL
ABSOLUTE EOSINOPHIL [1]: 66.7 cells/µL
ABSOLUTE LYMPHOCYTE [1]: 10000 cells/µL
ABSOLUTE MONOCYTE [1]: 240 cells/µL
BASOPHIL [1]: 0.53%
EOSINOPHIL [1]: 0.52%
ERYTHROCYTE COUNT [1]: 7.47 x10E6/uL
HEMATOCRIT [1]: 47.12%
HEMOGLOBIN [1]: 14.82 G/DL
LEUKOCYTE COUNT [1]: 12.98 x10E3/uL
LYMPHOCYTE [1]: 76.93%
MEAN CORPUSCULAR HEMOGLOBIN [1]: 19.85 pg
MEAN CORPUSCULAR HEMOGLOBIN CONCENTRATION [1]: 31.43 G/DL
MEAN CORPUSCULAR VOLUME [1]: 63.1 fL
MONOCYTE [1]: 1.83%
NEUTROPHIL [1]: 19.2%
PLATELET COUNT [1]: 1264.5 x10E3/uL
ALANINE AMINOTRANSFERASE [1]: 47.67 u/L
ALBUMIN [1]: 3.87 G/DL
ALKALINE PHOSPHATASE [1]: 477 u/L
ASPARTATE AMINOTRANSFERASE [1]: 81.33 u/L
BLOOD UREA NITROGEN [1]: 14.83 mg/dL
CARBON DIOXIDE [1]: 38.33 mmol/L
CHLORIDE [1]: 105.17 MEQ/L
CHOLESTEROL [1]: 68.67 mg/dL
CREATINE PHOSPHOKINASE [1]: 223.17 u/L
CREATININE [1]: 0.68 mg/dL
GLUCOSE [1]: 155.83 mg/dL
LACTATE DEHYDROGENASE [1]: 95.83 u/L
LIPASE [1]: 18.67 u/L
PHOSPHORUS [1]: 10.72 mg/dL
POTASSIUM [1]: 6.3 MEQ/L
SODIUM [1]: 151.83 MEQ/L
TOTAL BILIRUBIN [1]: 0.27 mg/dL
TOTAL PROTEIN [1]: 6.77 G/DL
URIC ACID [1]: 1.22 mg/dL
ABSOLUTE BASOPHIL [2]: 0 CELLS/uL
ABSOLUTE EOSINOPHIL [2]: 62.67 CELLS/uL
ABSOLUTE LYMPHOCYTE [2]: 11170 CELLS/uL
ABSOLUTE MONOCYTE [2]: 125.33 CELLS/uL
ABSOLUTE SEGMENTED NEUTROPHIL [2]: 1608.67 CELLS/uL
BASOPHIL [2]: 0%
EOSINOPHIL [2]: 0.33%
ERYTHROCYTE COUNT [2]: 5.22 x10E6/uL
HEMATOCRIT [2]: 32.67%
HEMOGLOBIN [2]: 12.17 G/DL
LEUKOCYTE COUNT [2]: 12.97 x10E3/uL
LYMPHOCYTE [2]: 81.67%
MEAN CORPUSCULAR HEMOGLOBIN [2]: 23.37 pg
MEAN CORPUSCULAR HEMOGLOBIN CONCENTRATION [2]: 37.27 G/DL
MEAN CORPUSCULAR VOLUME [2]: 62.6 fL
MONOCYTE [2]: 0.67%
NEUTROPHIL [2]: 17.33%
NUCLEATED RED BLOOD CELLS [2]: 0 /100WBC
PLATELET COUNT [2]: 1093.67 x10E3/uL
ALANINE AMINOTRANSFERASE [2]: 71.33 u/L
ALBUMIN [2]: 3.77 G/DL
ALKALINE PHOSPHATASE [2]: 555.67 u/L
ASPARTATE AMINOTRANSFERASE [2]: 110.67 u/L
BLOOD UREA NITROGEN [2]: 15.67 mg/dL
CARBON DIOXIDE [2]: 32.33 mmol/L
CHLORIDE [2]: 99.67 MEQ/L
CHOLESTEROL [2]: 134.33 mg/dL
CREATINE PHOSPHOKINASE [2]: 382 u/L
CREATININE [2]: 0.22 mg/dL
GLUCOSE [2]: 140 mg/dL
LACTATE DEHYDROGENASE [2]: 129.67 u/L
LIPASE [2]: 11.33 u/L
PHOSPHORUS [2]: 12.07 mg/dL
POTASSIUM [2]: 5.88 MEQ/L
SODIUM [2]: 143.37 MEQ/L
TOTAL BILIRUBIN [2]: 0.47 mg/dL
TOTAL PROTEIN [2]: 5.77 G/DL
URIC ACID [2]: 0.43 mg/dL
ABSOLUTE SEGMENTED NEUTROPHIL [3]: 1008.67 CELLS/uL
BASOPHIL [3]: 0.97% and 0%
EOSINOPHIL [3]: 0.55% and 0%
ERYTHROCYTE COUNT [3]: 7.33 x10E6/uL and 5.52 x10E6/uL
HEMATOCRIT [3]: 45.42% and 34.13%
HEMOGLOBIN [3]: 14.18 G/DL and 13.07 G/DL
LEUKOCYTE COUNT [3]: 20.78 x10E3/uL and 14.4 x10E3/uL
LYMPHOCYTE [3]: 80.47% and 90%
MEAN CORPUSCULAR HEMOGLOBIN [3]: 19.32 pg and 23.73 pg
MEAN CORPUSCULAR HEMOGLOBIN CONCENTRATION [3]: 31.2 G/DL and 38.33 G/DL
MEAN CORPUSCULAR VOLUME [3]: 61.95 fL and 61.97 fL
MONOCYTE [3]: 3.85% and 3%
NEUTROPHIL [3]: 12.68% and 7%
NUCLEATED RED BLOOD CELLS [3]: 0 /100WBC
PLATELET COUNT [3]: 1277.75 x10E3/uL and 1530.33 x10E3/uL
ALANINE AMINOTRANSFERASE [3]: 138.25 u/L and 130.33 u/L
ALBUMIN [3]: 3.45 G/DL and 4.23 G/DL
ALKALINE PHOSPHATASE [3]: 618 u/L and 531.33 u/L
ASPARTATE AMINOTRANSFERASE [3]: 321 u/L and 308.67 u/L
BLOOD UREA NITROGEN [3]: 15.75 mg/dL and 15.33 mg/dL
CARBON DIOXIDE [3]: 37 mmol/L and 36.67 mmol/L
CHLORIDE [3]: 104.75 MEQ/L and 97.67 MEQ/L
CHOLESTEROL [3]: 98.5 mg/dL and 113.67 mg/dL
CREATINE PHOSPHOKINASE [3]: 398.5 u/L and 603.33 u/L
CREATININE [3]: 0.5 mg/dL and 0.25 mg/dL
GLUCOSE [3]: 151.25 mg/dL and 120.33 mg/dL
LACTATE DEHYDROGENASE [3]: 162.5 u/L and 250.33 u/L
LIPASE [3]: 17 u/L and 9.67 u/L
PHOSPHORUS [3]: 11.03 mg/dL and 12.1 mg/dL
POTASSIUM [3]: 6.62 MEQ/L and 5.82 MEQ/L
SODIUM [3]: 151 MEQ/L and 142.77 MEQ/L
TOTAL BILIRUBIN [3]: 0.4 mg/dL and 0.37 mg/dL
TOTAL PROTEIN [3]: 5.72 G/DL and 6.2 G/DL
URIC ACID [3]: 1.07 mg/dL and 0.63 mg/dL
ABSOLUTE BASOPHIL [4]: 150 cells/µL
ABSOLUTE EOSINOPHIL [4]: 75 cells/µL
ABSOLUTE LYMPHOCYTE [4]: 12900 cells/µL
ABSOLUTE MONOCYTE [4]: 390 cells/µL
BASOPHIL [4]: 0.77%
EOSINOPHIL [4]: 0.5%
ERYTHROCYTE COUNT [4]: 8.39 x10E6/uL
HEMATOCRIT [4]: 49.5%
HEMOGLOBIN [4]: 15.85 G/DL
LEUKOCYTE COUNT [4]: 15.58 x10E3/uL
LYMPHOCYTE [4]: 82.28%
MEAN CORPUSCULAR HEMOGLOBIN [4]: 18.95 pg
MEAN CORPUSCULAR HEMOGLOBIN CONCENTRATION [4]: 32.1 G/DL
MEAN CORPUSCULAR VOLUME [4]: 59.02 fL
MONOCYTE [4]: 2.45%
NEUTROPHIL [4]: 12.85%
PLATELET COUNT [4]: 1440.5 x10E3/uL
ALANINE AMINOTRANSFERASE [4]: 70.83 u/L
ALBUMIN [4]: 3.47 G/DL
ALKALINE PHOSPHATASE [4]: 569.83 u/L
ASPARTATE AMINOTRANSFERASE [4]: 277.5 u/L
BLOOD UREA NITROGEN [4]: 17.17 mg/dL
CARBON DIOXIDE [4]: 33.83 mmol/L
CHLORIDE [4]: 106.33 MEQ/L
CHOLESTEROL [4]: 60.17 mg/dL
CREATINE PHOSPHOKINASE [4]: 264.5 u/L
CREATININE [4]: 0.7 mg/dL
GLUCOSE [4]: 134.5 mg/dL
LACTATE DEHYDROGENASE [4]: 165.67 u/L
LIPASE [4]: 22.2 u/L
PHOSPHORUS [4]: 11.25 mg/dL
POTASSIUM [4]: 6.93 MEQ/L
SODIUM [4]: 150.83 MEQ/L
TOTAL BILIRUBIN [4]: 0.65 mg/dL
TOTAL PROTEIN [4]: 5.93 G/DL
URIC ACID [4]: 1.82 mg/dL
